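Tested at 5 concentrations; 48 h exposure; 96-well plates; endpoints linearly interpolated, else capped at highest concentration. The concentration for 50% growth inhibition is given as GI50.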 The source made the active and inactive calls. Cut-off read from the data, not from the text of the source: active = GI50 up to about 1.1 µM and inactive = higher.
Tests used:
Assay in all cases: NCI-60 cell line screen, 48 h
786-0 = test system: 786-0
COLO 205 = test system: COLO 205
HL-60 = test system: HL-60
HOP-92 = test system: HOP-92
IGROV-1 = test system: IGROV-1
MCF7 = test system: MCF7
MDA-MB-435 = test system: MDA-MB-435
MDA-N = test system: MDA-N
MOLT-4 = test system: MOLT-4
OVCAR-8 = test system: OVCAR-8
SF-295 = test system: SF-295
SF-539 = test system: SF-539
SK-MEL-2 = test system: SK-MEL-2
SK-MEL-5 = test system: SK-MEL-5
SK-OV-3 = test system: SK-OV-3
SN12C = test system: SN12C
SNB-75 = test system: SNB-75
T47D = test system: T47D
UACC-62 = test system: UACC-62
UO-31 = test system: UO-31

Structure (SMILES) | GI50 (786-0) | GI50 (COLO 205) | GI50 (HL-60) | GI50 (HOP-92) | GI50 (IGROV-1) | GI50 (MCF7) | GI50 (MDA-MB-435) | GI50 (MDA-N) | GI50 (MOLT-4) | GI50 (OVCAR-8) | GI50 (SF-295) | GI50 (SF-539) | GI50 (SK-MEL-2) | GI50 (SK-MEL-5) | GI50 (SK-OV-3) | GI50 (SN12C) | GI50 (SNB-75) | GI50 (T47D) | GI50 (UACC-62) | GI50 (UO-31)
c1ccc2c(c1)c1c(n2CCOCCN2CCCCC2)CCCC1 | 13.4 µM (inactive) | 11.1 µM (inactive) | 2.37 µM (inactive) | 8.2 µM (inactive) | 13.9 µM (inactive) | 13.7 µM (inactive) | 12.8 µM (inactive) | 14.8 µM (inactive) | 10.5 µM (inactive) | 14 µM (inactive) | 16.2 µM (inactive) | 16.6 µM (inactive) | 8.77 µM (inactive) | 8.43 µM (inactive) | 18.7 µM (inactive) | 13.7 µM (inactive) | 11.6 µM (inactive) | 13.4 µM (inactive) | 15 µM (inactive) | 11.1 µM (inactive)
CC(=O)Nc1cccc(N2C(=O)/C(=C\c3cccc(Oc4ccccc4)c3)S(=O)(=O)C2c2ccccc2)c1 (centres undefined) | > 100 µM (inactive) | 59.7 µM (inactive) | 18.9 µM (inactive) | 43.3 µM (inactive) | 50.7 µM (inactive) | 34 µM (inactive) | 34 µM (inactive) | 33.1 µM (inactive) | 16.1 µM (inactive) | 37.1 µM (inactive) | 46.5 µM (inactive) | 36 µM (inactive) | 55.6 µM (inactive) | 76.6 µM (inactive) | > 100 µM (inactive) | > 100 µM (inactive) | > 100 µM (inactive) | 25 µM (inactive) | 43.6 µM (inactive) | 33.1 µM (inactive)
COc1ccc(CNC(C)C(=O)O)cc1 (centres undefined) | > 100 µM (inactive) | > 100 µM (inactive) | > 100 µM (inactive) | > 100 µM (inactive) | > 100 µM (inactive) | > 100 µM (inactive) | > 100 µM (inactive) | > 100 µM (inactive) | > 100 µM (inactive) | > 100 µM (inactive) | > 100 µM (inactive) | > 100 µM (inactive) | > 100 µM (inactive) | > 100 µM (inactive) | > 100 µM (inactive) | > 100 µM (inactive) | > 100 µM (inactive) | > 100 µM (inactive) | > 100 µM (inactive) | > 100 µM (inactive)
CCCCOC(=O)NC(c1ccccc1)C(O)C(=O)OC1C[C@@]2(O)C(OC(=O)c3ccccc3)C3[C@](C)(C(=O)[C@H](OC(C)=O)C(=C1C)C2(C)C)[C@@H](O)C[C@H]1OC[C@@]31OC(C)=O (some centres undefined) | 0.00875 µM (active) | 0.00652 µM (active) | 0.00345 µM (active) | 5.7 µM (inactive) | 0.00405 µM (active) | 0.00248 µM (active) | 0.00224 µM (active) | 0.00176 µM (active) | 0.0407 µM (active) | 0.0117 µM (active) | 0.0159 µM (active) | 0.00305 µM (active) | 0.00773 µM (active) | 0.0102 µM (active) | 0.0205 µM (active) | 0.0157 µM (active) | 0.0179 µM (active) | 0.175 µM (active) | 0.0134 µM (active) | 0.176 µM (active)
O=C(NO)c1ccc(OCc2cccc(Cl)c2)cc1 | 6.11 µM (inactive) | 7.35 µM (inactive) | 2.47 µM (inactive) | 11.9 µM (inactive) | 6.67 µM (inactive) | 12.7 µM (inactive) | 6.67 µM (inactive) | 10.1 µM (inactive) | 2.62 µM (inactive) | 3.01 µM (inactive) | 9.33 µM (inactive) | 8.11 µM (inactive) | 12.8 µM (inactive) | 12.4 µM (inactive) | 8.45 µM (inactive) | 8.89 µM (inactive) | 9.2 µM (inactive) | 6.97 µM (inactive) | 5.4 µM (inactive) | 7.43 µM (inactive)
CCc1c[n+]2c(cc1C1=CN3c4ccccc4[C@]45CCN6C/C(=C/CO)[C@H](C[C@H]64)[C@@H]([C@@H]1O)[C@H]35)-c1[nH]c3ccccc3c1CC2 | > 50 µM (inactive) | > 50 µM (inactive) | > 50 µM (inactive) | > 50 µM (inactive) | > 50 µM (inactive) | > 50 µM (inactive) | > 50 µM (inactive) | > 50 µM (inactive) | > 50 µM (inactive) | > 50 µM (inactive) | > 50 µM (inactive) | > 50 µM (inactive) | > 50 µM (inactive) | > 50 µM (inactive) | > 50 µM (inactive) | > 50 µM (inactive) | > 50 µM (inactive) | > 50 µM (inactive) | > 50 µM (inactive) | > 50 µM (inactive)
O=c1n(CC2CO2)c(=O)n(CC2CO2)c(=O)n1CC1CO1 (centres undefined) [TEROXIRONE] | 6.22 µM (inactive) | 14.3 µM (inactive) | 1.55 µM (inactive) | 39.3 µM (inactive) | 39.2 µM (inactive) | 11.1 µM (inactive) | 17.9 µM (inactive) | 20.8 µM (inactive) | 2.35 µM (inactive) | 33.3 µM (inactive) | 10 µM (inactive) | 7.76 µM (inactive) | 90.2 µM (inactive) | – | 36.1 µM (inactive) | 7.83 µM (inactive) | 25.1 µM (inactive) | 17.3 µM (inactive) | 2.49 µM (inactive) | 25.7 µM (inactive)
c1cncc(C(Nc2cccc3cccnc23)Nc2cccc3cccnc23)c1 | > 100 µM (inactive) | > 100 µM (inactive) | 36.3 µM (inactive) | > 100 µM (inactive) | > 100 µM (inactive) | > 100 µM (inactive) | > 100 µM (inactive) | > 100 µM (inactive) | – | > 100 µM (inactive) | > 100 µM (inactive) | > 100 µM (inactive) | > 100 µM (inactive) | > 100 µM (inactive) | > 100 µM (inactive) | > 100 µM (inactive) | 37.8 µM (inactive) | > 100 µM (inactive) | > 100 µM (inactive) | 83.8 µM (inactive)
CC(C)(CCC(C)(C)c1ccccc1)c1ccccc1 | 15.7 µM (inactive) | 18.1 µM (inactive) | 16.3 µM (inactive) | 19 µM (inactive) | 24.9 µM (inactive) | 17.9 µM (inactive) | 21.9 µM (inactive) | 22.2 µM (inactive) | 18.5 µM (inactive) | 27 µM (inactive) | 17 µM (inactive) | 21.1 µM (inactive) | 16.6 µM (inactive) | 14.4 µM (inactive) | 27.1 µM (inactive) | 18.2 µM (inactive) | 18 µM (inactive) | 16.7 µM (inactive) | 19 µM (inactive) | –
Cc1ccc(S(=O)(=O)c2c(O)c3ccccc3n(C)c2=O)cc1 | > 100 µM (inactive) | > 100 µM (inactive) | > 100 µM (inactive) | > 100 µM (inactive) | > 100 µM (inactive) | > 100 µM (inactive) | > 100 µM (inactive) | > 100 µM (inactive) | – | > 100 µM (inactive) | > 100 µM (inactive) | > 100 µM (inactive) | > 100 µM (inactive) | > 100 µM (inactive) | > 100 µM (inactive) | > 100 µM (inactive) | > 100 µM (inactive) | > 100 µM (inactive) | > 100 µM (inactive) | > 100 µM (inactive)
CC(=O)O[C@H]1C(=O)[C@@]2(C)[C@H]([C@H](OC(=O)c3ccc([N+](=O)[O-])cc3)[C@]3(O)C[C@H](OC(=O)[C@H](O)[C@@H](NC(=O)c4ccccc4)c4ccccc4)C(C)=C1C3(C)C)[C@]1(OC(C)=O)CO[C@@H]1C[C@@H]2O | > 25 µM (inactive) | > 25 µM (inactive) | > 25 µM (inactive) | > 25 µM (inactive) | > 25 µM (inactive) | > 25 µM (inactive) | > 25 µM (inactive) | 16.8 µM (inactive) | > 25 µM (inactive) | > 25 µM (inactive) | > 25 µM (inactive) | > 25 µM (inactive) | – | > 25 µM (inactive) | > 25 µM (inactive) | > 25 µM (inactive) | > 25 µM (inactive) | > 25 µM (inactive) | > 25 µM (inactive) | > 25 µM (inactive)
N#CCN(Cc1ccccc1)[C@@H]1CCC[C@]1(O)C#Cc1ccc2c(c1)OCO2 | 15.8 µM (inactive) | 17.4 µM (inactive) | 20.6 µM (inactive) | 12.9 µM (inactive) | 17.1 µM (inactive) | 16.9 µM (inactive) | 18.5 µM (inactive) | 17.5 µM (inactive) | 16.4 µM (inactive) | 16.7 µM (inactive) | 19.8 µM (inactive) | 11.7 µM (inactive) | 16.4 µM (inactive) | 16.4 µM (inactive) | 25.8 µM (inactive) | – | 31 µM (inactive) | 16.6 µM (inactive) | 16.1 µM (inactive) | 28.2 µM (inactive)
O=C(C=P(c1ccccc1)(c1ccccc1)c1ccccc1)c1ccc(-c2cccc([N+](=O)[O-])c2)cc1 | 4.51 µM (inactive) | 1.75 µM (inactive) | 2.57 µM (inactive) | 2.16 µM (inactive) | – | 3.13 µM (inactive) | 2.39 µM (inactive) | 2.88 µM (inactive) | 2.96 µM (inactive) | – | 3.6 µM (inactive) | 4.46 µM (inactive) | 1.63 µM (inactive) | 2.22 µM (inactive) | 4.03 µM (inactive) | 3.13 µM (inactive) | 2.29 µM (inactive) | 3.85 µM (inactive) | 4.2 µM (inactive) | 2.09 µM (inactive)
O=C(Cn1c(C(=O)/C=C/c2cccs2)nc2ccccc21)c1ccc(Cl)cc1 | 16.3 µM (inactive) | 17.5 µM (inactive) | 18.3 µM (inactive) | 23.3 µM (inactive) | 16.7 µM (inactive) | 16.3 µM (inactive) | 12.7 µM (inactive) | 21.1 µM (inactive) | – | – | – | 32.2 µM (inactive) | 6 µM (inactive) | 14.4 µM (inactive) | 32.9 µM (inactive) | 16.7 µM (inactive) | 24.2 µM (inactive) | 36.3 µM (inactive) | 25.2 µM (inactive) | 24.1 µM (inactive)

— ChEMBL document CHEMBL1201862, “PubChem BioAssay data set” (2004)
